Measurements from patent US4684664A, “Derivatives of β-(4-isocyano-1,2,3,4-diepoxycyclopentyl) acrylic acid” (Kureha Kagaku Kogyo Kabushiki Kaisha, priority 1984, dated 1987).
In brackets after ≈: the same amount, converted by molar mass.

Assays:
Type in all cases: cell-based
[1] = test system: Salmonella paratyphi-A 1015; assay: Antibacterial activity, agar-dilution MIC, organism No. 10; settings: Salmonella enterica, PARATYPHI, read-out: Minimum Inhibitory Concentration
Procedure, shortened: (§1)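 MICs were determined by agar dilution on bouillon-agar medium. The value is the minimum concentration of specimen inhibiting growth, expressed as μg/ml of culture medium.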

Proteus vulgaris HX-19 = assay: Antibacterial activity, agar-dilution MIC, organism No. 21; settings: Proteus vulgaris, HX19; Organism No. 21, bouillon-agar; read-out: Minimum Inhibitory Concentration
Procedure, shortened: as §1

[2] = test system: Staphylococcus aureus FDA 209PJc-1; assay: Antibacterial activity, agar-dilution MIC, organism No. 1; settings: Staphylococcus aureus, FDA209PJC1; Organism No. 1, bouillon-agar; read-out: Minimum Inhibitory Concentration
Procedure, shortened: as §1

[3] = test system: Bacillus subtilis ATCC 6633; assay: Antibacterial activity, agar-dilution MIC, organism No. 14; settings: Bacillus subtilis, ATCC6633; Organism No. 14, bouillon-agar; read-out: Minimum Inhibitory Concentration
Procedure, shortened: as §1

[4] = test system: Candida albicans IAM 4905; assay: Antifungal activity, agar-dilution MIC, organism No. 29; settings: Candida albicans, IAM4905; Organism No. 29, bouillon-agar; read-out: Minimum Inhibitory Concentration
Procedure, shortened: as §1

[5] = test system: Salmonella enteritidis G 14; assay: Antibacterial activity, agar-dilution MIC, organism No. 12; settings: Salmonella enterica, ENTERITIDIS; Organism No. 12, bouillon-agar; read-out: Minimum Inhibitory Concentration
Procedure, shortened: as §1

[6] = test system: Escherichia coli NIHJ-JC-2; assay: Antibacterial activity, agar-dilution MIC, organism No. 5; settings: Escherichia coli, NIHJJC2; Organism No. 5, bouillon-agar; read-out: Minimum Inhibitory Concentration
Procedure, shortened: as §1

[7] = test system: Serratia marcescens IAM 1184; assay: Antibacterial activity, agar-dilution MIC, organism No. 13; settings: Serratia marcescens, IAM1184; Organism No. 13, bouillon-agar; read-out: Minimum Inhibitory Concentration
Procedure, shortened: as §1

[8] = test system: Streptococcus pyogenes IFO 3340; assay: Antibacterial activity, agar-dilution MIC, organism No. 26; settings: Streptococcus pyogenes, IFO3340; Organism No. 26, bouillon-agar; read-out: Minimum Inhibitory Concentration
Procedure, shortened: as §1

Salmonella typhi 901 = assay: Antibacterial activity, agar-dilution MIC, organism No. 9; settings: Salmonella enterica, TYPHI, read-out: Minimum Inhibitory Concentration
Procedure, shortened: as §1

Enterobacter cloacae 963 = assay: Antibacterial activity, agar-dilution MIC, organism No. 24; settings: Enterobacter cloacae, 963; Organism No. 24, bouillon-agar; read-out: Minimum Inhibitory Concentration
Procedure, shortened: as §1

[9] = test system: Proteus morganii IFO 3848; assay: Antibacterial activity, agar-dilution MIC, organism No. 18; settings: Morganella morganii, IFO3848; Organism No. 18, bouillon-agar; read-out: Minimum Inhibitory Concentration
Procedure, shortened: as §1

[10] = test system: Enterobacter aerogenes ATCC 13048; assay: Antibacterial activity, agar-dilution MIC, organism No. 23; settings: Klebsiella aerogenes, ATCC13048; Organism No. 23, bouillon-agar; read-out: Minimum Inhibitory Concentration
Procedure, shortened: as §1

[11] = test system: Aspergillus niger IFO 6342; assay: Antifungal activity, agar-dilution MIC, organism No. 30; settings: Aspergillus niger, IFO6342; Organism No. 30, bouillon-agar; read-out: Minimum Inhibitory Concentration
Procedure, shortened: as §1

[12] = test system: Micrococcus luteus ATCC 9341; assay: Antibacterial activity, agar-dilution MIC, organism No. 25; settings: Micrococcus luteus, ATCC9341; Organism No. 25, bouillon-agar; read-out: Minimum Inhibitory Concentration
Procedure, shortened: as §1

[13] = test system: Mycoplasma pneumoniae IID817; assay: Antimycoplasmal activity, MIC by phenol red colour change, organism No. 28; settings: Mycoplasma, IID817; Organism No. 28, PPLO broth + 1% glucose, 37° C.; read-out: Minimum Inhibitory Concentration (MIC)
Experimental: Mycoplasma pneumoniae IID817 was used as the test microorganism in a culture medium prepared by adding 1% of glucose to "PPLO broth (manufactured by Difco Co.) liquid culture medium" at 37° C. with phenol red as an indicator, thereby culturing the test microorganism.

[14] = test system: Pseudomonas aeruginosa NCTC 10490; assay: Antibacterial activity, agar-dilution MIC, organism No. 16; settings: Pseudomonas aeruginosa, NCTC10490; Organism No. 16, bouillon-agar; read-out: Minimum Inhibitory Concentration
Procedure, shortened: as §1

[15] = test system: Proteus mirabilis IFO 3849; assay: Antibacterial activity, agar-dilution MIC, organism No. 19; settings: Proteus mirabilis, IFO3849; Organism No. 19, bouillon-agar; read-out: Minimum Inhibitory Concentration
Procedure, shortened: as §1

[16] = test system: Staphylococcus aureus MS 353; assay: Antibacterial activity, agar-dilution MIC, organism No. 3; settings: Staphylococcus aureus, MS353; Organism No. 3, bouillon-agar; read-out: Minimum Inhibitory Concentration
Procedure, shortened: as §1

[17] = test system: Escherichia coli K12 C600 IAM 1264; assay: Antibacterial activity, agar-dilution MIC, organism No. 6; settings: Escherichia coli, IAM1264; Organism No. 6, bouillon-agar; read-out: Minimum Inhibitory Concentration
Procedure, shortened: as §1

[18] = test system: Proteus rettgeri IFO 3850; assay: Antibacterial activity, agar-dilution MIC, organism No. 22; settings: Providencia rettgeri, IFO3850; Organism No. 22, bouillon-agar; read-out: Minimum Inhibitory Concentration
Procedure, shortened: as §1

[19] = test system: Pseudomonas aeruginosa PAO 1; assay: Antibacterial activity, agar-dilution MIC, organism No. 17; settings: Pseudomonas aeruginosa, PAO1; Organism No. 17, bouillon-agar; read-out: Minimum Inhibitory Concentration
Procedure, shortened: as §1

[20] = test system: Pseudomonas aeruginosa IFO 3445; assay: Antibacterial activity, agar-dilution MIC, organism No. 15; settings: Pseudomonas aeruginosa, IFO3445; Organism No. 15, bouillon-agar; read-out: Minimum Inhibitory Concentration
Procedure, shortened: as §1

Proteus vulgaris OX-19 = assay: Antibacterial activity, agar-dilution MIC, organism No. 20; settings: Proteus vulgaris, OX19; Organism No. 20, bouillon-agar; read-out: Minimum Inhibitory Concentration
Procedure, shortened: as §1

[21] = test system: Staphylococcus aureus Terajima; assay: Antibacterial activity, agar-dilution MIC, organism No. 2; settings: Staphylococcus aureus; Organism No. 2, bouillon-agar; read-out: Minimum Inhibitory Concentration
Procedure, shortened: as §1

[22] = test system: Salmonella shottmuelleri 8006; assay: Antibacterial activity, agar-dilution MIC, organism No. 11; settings: Salmonella, 8006; Organism No. 11, bouillon-agar; read-out: Minimum Inhibitory Concentration
Procedure, shortened: as §1

[23] = test system: Streptococcus faecium IFO 3826; assay: Antibacterial activity, agar-dilution MIC, organism No. 27; settings: Enterococcus faecium, IFO3826; Organism No. 27, bouillon-agar; read-out: Minimum Inhibitory Concentration
Procedure, shortened: as §1

[24] = test system: Streptococcus pyogenes Cook; assay: Antibacterial activity, agar-dilution MIC, organism No. 4; settings: Streptococcus pyogenes; Organism No. 4, bouillon-agar; read-out: Minimum Inhibitory Concentration
Procedure, shortened: as §1

[25] = test system: Salmonella typhimurium IID 971; assay: Antibacterial activity, agar-dilution MIC, organism No. 8; settings: Salmonella enterica; Organism No. 8, bouillon-agar; read-out: Minimum Inhibitory Concentration
Procedure, shortened: as §1

[26] = test system: Klebsiella pneumoniae PCI-602; assay: Antibacterial activity, agar-dilution MIC, organism No. 7; settings: Klebsiella pneumoniae, PCI602; Organism No. 7, bouillon-agar; read-out: Minimum Inhibitory Concentration
Procedure, shortened: as §1

Structure (SMILES) | MIC [1] [µg/mL] | MIC (Proteus vulgaris HX-19) [µg/mL] | MIC [2] [µg/mL] | MIC [3] [µg/mL] | MIC [4] [µg/mL] | MIC [5] [µg/mL] | MIC [6] [µg/mL] | MIC [7] [µg/mL] | MIC [8] [µg/mL] | MIC (Salmonella typhi 901) [µg/mL] | MIC (Enterobacter cloacae 963) [µg/mL] | MIC [9] [µg/mL] | MIC [10] [µg/mL] | MIC [11] [µg/mL] | MIC [12] [µg/mL] | MIC [13] [µg/mL] | MIC [14] [µg/mL] | MIC [15] [µg/mL] | MIC [16] [µg/mL] | MIC [17] [µg/mL] | further results
[C-]#[N+]C12CC3(/C=C/C(=O)OCC(=O)c4cccc(OC)c4)OC3C1O2 (stereo not drawn) [compound 7] | 12.5 (≈ 36.6 µM) | 0.39 (≈ 1.14 µM) | 0.39 (≈ 1.14 µM) | 6.25 (≈ 18.3 µM) | 1.56 (≈ 4.57 µM) | 12.5 (≈ 36.6 µM) | 25 (≈ 73.2 µM) | 25 (≈ 73.2 µM) | 12.5 (≈ 36.6 µM) | 6.25 (≈ 18.3 µM) | > 100 | 12.5 (≈ 36.6 µM) | > 100 | 3.13 (≈ 9.17 µM) | 0.39 (≈ 1.14 µM) | < 0.2 | > 100 | 12.5 (≈ 36.6 µM) | 0.39 (≈ 1.14 µM) | 12.5 (≈ 36.6 µM) | MIC [18]: > 100 µg/mL; MIC [19]: > 100 µg/mL; MIC [20]: > 100 µg/mL; MIC (Proteus vulgaris OX-19): 1.56 µg/mL (≈ 4.57 µM); MIC [21]: 6.25 µg/mL (≈ 18.3 µM); MIC [22]: 6.25 µg/mL (≈ 18.3 µM); MIC [23]: 6.25 µg/mL (≈ 18.3 µM); MIC [24]: 12.5 µg/mL (≈ 36.6 µM); MIC [25]: 25 µg/mL (≈ 73.2 µM); MIC [26]: 3.13 µg/mL (≈ 9.17 µM)
[C-]#[N+]C12CC3(/C=C/C(=O)OCC(=O)c4ccc(C)cc4)OC3C1O2 (stereo not drawn) [compound 6] | > 100 | 0.2 (≈ 0.615 µM) | 0.39 (≈ 1.2 µM) | 100 (≈ 307 µM) | 0.8 (≈ 2.46 µM) | > 100 | > 100 | > 100 | < 100 | 50 (≈ 154 µM) | > 100 | 12.5 (≈ 38.4 µM) | > 100 | 3.13 (≈ 9.62 µM) | 0.39 (≈ 1.2 µM) | < 0.2 | > 100 | > 100 | 0.78 (≈ 2.4 µM) | > 100 | MIC [18]: > 100 µg/mL; MIC [19]: > 100 µg/mL; MIC [20]: > 100 µg/mL; MIC (Proteus vulgaris OX-19): 1.56 µg/mL (≈ 4.8 µM); MIC [21]: 25 µg/mL (≈ 76.8 µM); MIC [22]: 50 µg/mL (≈ 154 µM); MIC [23]: 25 µg/mL (≈ 76.8 µM); MIC [24]: > 100 µg/mL; MIC [25]: > 100 µg/mL; MIC [26]: 50 µg/mL (≈ 154 µM)
[C-]#[N+]C12CC3(/C=C/C(=O)Nc4ccc(N)cc4)OC3C1O2 (stereo not drawn) [compound 59] | 6.25 (≈ 22.1 µM) | 1.56 (≈ 5.51 µM) | 6.25 (≈ 22.1 µM) | 12.5 (≈ 44.1 µM) | 12.5 (≈ 44.1 µM) | 6.25 (≈ 22.1 µM) | 25 (≈ 88.2 µM) | 200 (≈ 706 µM) | 6.25 (≈ 22.1 µM) | 6.25 (≈ 22.1 µM) | > 200 | 3.13 (≈ 11 µM) | > 200 | 12.5 (≈ 44.1 µM) | 0.78 (≈ 2.75 µM) | < 0.2 | > 200 | > 200 | 6.25 (≈ 22.1 µM) | 25 (≈ 88.2 µM) | MIC [18]: 200 µg/mL (≈ 706 µM); MIC [19]: > 200 µg/mL; MIC [20]: > 200 µg/mL; MIC (Proteus vulgaris OX-19): 1.56 µg/mL (≈ 5.51 µM); MIC [21]: 25 µg/mL (≈ 88.2 µM); MIC [22]: 6.25 µg/mL (≈ 22.1 µM); MIC [23]: 100 µg/mL (≈ 353 µM); MIC [24]: 50 µg/mL (≈ 176 µM); MIC [25]: 12.5 µg/mL (≈ 44.1 µM); MIC [26]: 3.13 µg/mL (≈ 11 µM)
[C-]#[N+]C12CC3(/C=C/C(=O)OCc4cc([N+](=O)[O-])ccc4OC)OC3C1O2 (stereo not drawn) [Compound No. 16] | 50 (≈ 140 µM) | 3.13 (≈ 8.74 µM) | 6.25 (≈ 17.4 µM) | 25 (≈ 69.8 µM) | 3.13 (≈ 8.74 µM) | > 200 | 200 (≈ 558 µM) | 100 (≈ 279 µM) | 200 (≈ 558 µM) | 50 (≈ 140 µM) | > 200 | 12.5 (≈ 34.9 µM) | > 200 | 6.25 (≈ 17.4 µM) | 0.1 (≈ 0.279 µM) | 6.25 | > 200 | > 200 | 6.25 (≈ 17.4 µM) | 200 (≈ 558 µM) | MIC [18]: 100 µg/mL (≈ 279 µM); MIC [19]: > 200 µg/mL; MIC [20]: > 200 µg/mL; MIC (Proteus vulgaris OX-19): 50 µg/mL (≈ 140 µM); MIC [21]: 6.25 µg/mL (≈ 17.4 µM); MIC [22]: 50 µg/mL (≈ 140 µM); MIC [23]: 6.25 µg/mL (≈ 17.4 µM); MIC [24]: 200 µg/mL (≈ 558 µM); MIC [25]: > 200 µg/mL; MIC [26]: 50 µg/mL (≈ 140 µM)
